Source: US20050208290A1, “Thick radiation sensitive devices” (priority 2003, published 2005)

Assay: preliminary toxicity study
Settings: no details given

With `CCCCCCNC(=O)OCC#CC#CCOC(=O)NCCCCCC` [compound 166, 2,4-hexadiyn-1,6-bis(n-hexylurethane)] the toxicity was “nontoxic”.
